System: panel of breast cancer cell lines
Experiment: Compound A with targeted agents and chemotherapies, 72-hour in vitro proliferation assays
Assay type: cell-based
Details: 72-hour proliferation
[1] = AU565 cell line, compound A × partner
[2] = BT-20 cell line, compound A × partner
[3] = BT-474 cell line, compound A × partner
[4] = BT-549 cell line, compound A × partner
[5] = CAL-51 cell line, compound A × partner
[6] = CAL-85-1 cell line, compound A × partner
[7] = CAL-120 cell line, compound A × partner
[8] = CAL-148 cell line, compound A × partner
[9] = CAMA-1 cell line, compound A × partner
[10] = DU-4475 cell line, compound A × partner
[11] = EVSA-T cell line, compound A × partner
[12] = MCF7 cells, Compound A × partner agent
[13] = MDA-MB-175-VII cells, Compound A × partner agent
[14] = MDA-MB-231 cells, Compound A × partner agent
[15] = MDA-MB-361 cells, Compound A × partner agent
[16] = MDA-MB-436 cells, Compound A × partner agent
[17] = MDA-MB-453 cells, Compound A × partner agent
[18] = MDA-MB-468 cells, Compound A × partner agent
[19] = SK-BR-3 cells, Compound A × partner agent
[20] = SUM159PT cells, combination of compound A with the named agent
[21] = T47D cells, combination of compound A with the named agent
[22] = ZR-75-1 cells, combination of compound A with the named agent
[23] = ZR-75-30 cells, combination of compound A with the named agent

`CO[C@H]1C[C@@H]2CC[C@@H](C)[C@@](O)(O2)C(=O)C(=O)N2CCCC[C@H]2C(=O)O[C@H]([C@H](C)C[C@@H]2CC[C@@H](OCCO)[C@H](OC)C2)CC(=O)[C@H](C)/C=C(\C)[C@@H](O)[C@@H](OC)C(=O)[C@H](C)C[C@H](C)/C=C/C=C/C=C/1C` [Everolimus] was tested, and the “Bliss Volume” value [1] was 5.68, the HSA volume [1] was 2.64 and the “Loewe Volume” value [1] was 3.01. The “Synergy Score” value [1] was 3.02, the “Bliss Volume” value [2] was 8.37 and the HSA volume [2] was 8.23. The “Loewe Volume” value [2] was 7.02, the “Synergy Score” value [2] was 11.08 and the “Bliss Volume” value [3] was 3.26. For the same molecule, the HSA volume [3] was −1.26, the “Loewe Volume” value [3] was −2.71 and the “Synergy Score” value [3] was 2.41. For the same molecule, the “Bliss Volume” value [4] was 5.93, the HSA volume [4] was 8.22 and the “Loewe Volume” value [4] was 7.87. The “Synergy Score” value [4] was 7.35, the “Bliss Volume” value [5] was −2.55 and the HSA volume [5] was 0.45. The “Loewe Volume” value [5] was 0.41, the “Synergy Score” value [5] was 1.34 and the “Bliss Volume” value [6] was 10.37. For the same molecule, the HSA volume [6] was 14.41, the “Loewe Volume” value [6] was 13.60 and the “Synergy Score” value [6] was 16.26. For the same molecule, the “Bliss Volume” value [7] was −2.79, the HSA volume [7] was −1.61 and the “Loewe Volume” value [7] was −1.62. For the same molecule, the “Synergy Score” value [7] was 0.53, the “Bliss Volume” value [8] was 5.67 and the HSA volume [8] was 9.58. The “Loewe Volume” value [8] was 8.56, the “Synergy Score” value [8] was 18.16 and the “Bliss Volume” value [9] was 10.06. The HSA volume [9] was 2.71, the “Loewe Volume” value [9] was 3.20 and the “Synergy Score” value [9] was 7.90. The “Bliss Volume” value [10] was 4.29, the HSA volume [10] was 1.94 and the “Loewe Volume” value [10] was 0.97. The “Synergy Score” value [10] was 2.43, the “Bliss Volume” value [11] was 10.56 and the HSA volume [11] was −0.76. For the same molecule, the “Loewe Volume” value [11] was −1.22, the “Synergy Score” value [11] was 1.85 and the “Bliss Volume” value (HCC38, compound A × partner) was −6.70. The HSA volume (HCC38, compound A × partner) was −1.96, the “Loewe Volume” value (HCC38, compound A × partner) was −2.56 and the “Synergy Score” value (HCC38, compound A × partner) was 2.18. For the same molecule, the “Bliss Volume” value (HCC70, compound A × partner) was 9.56, the HSA volume (HCC70, compound A × partner) was 8.83 and the “Loewe Volume” value (HCC70, compound A × partner) was 6.84. For the same molecule, the “Synergy Score” value (HCC70, compound A × partner) was 11.30, the “Bliss Volume” value (HCC1143, compound A × partner) was 8.68 and the HSA volume (HCC1143, compound A × partner) was 8.45. The “Loewe Volume” value (HCC1143, compound A × partner) was 10.21, the “Synergy Score” value (HCC1143, compound A × partner) was 9.36 and the “Bliss Volume” value (HCC1569, compound A × partner) was 2.35. The HSA volume (HCC1569, compound A × partner) was 5.10, the “Loewe Volume” value (HCC1569, compound A × partner) was 4.65 and the “Synergy Score” value (HCC1569, compound A × partner) was 3.45. The “Bliss Volume” value (HCC1806, compound A × partner) was 5.19, the HSA volume (HCC1806, compound A × partner) was 2.88 and the “Loewe Volume” value (HCC1806, compound A × partner) was 5.59. The “Synergy Score” value (HCC1806, compound A × partner) was 2.52, the “Bliss Volume” value (HCC1937, compound A × partner) was 1.96 and the HSA volume (HCC1937, compound A × partner) was 3.68. The “Loewe Volume” value (HCC1937, compound A × partner) was 4.63, the “Synergy Score” value (HCC1937, compound A × partner) was 4.89 and the “Bliss Volume” value (HCC1954, compound A × partner) was 20.04. The HSA volume (HCC1954, compound A × partner) was 23.41, the “Loewe Volume” value (HCC1954, compound A × partner) was 21.71 and the “Synergy Score” value (HCC1954, compound A × partner) was 36.09. For the same molecule, the “Bliss Volume” value (HCC2218, compound A × partner) was −0.77, the HSA volume (HCC2218, compound A × partner) was −0.63 and the “Loewe Volume” value (HCC2218, compound A × partner) was −2.03. The “Synergy Score” value (HCC2218, compound A × partner) was 3.37, the “Bliss Volume” value (HDQ-P1, compound A × partner) was 6.97 and the HSA volume (HDQ-P1, compound A × partner) was −1.39. For the same molecule, the “Loewe Volume” value (HDQ-P1, compound A × partner) was 6.48, the “Synergy Score” value (HDQ-P1, compound A × partner) was 2.04 and the “Bliss Volume” value (HMC-1-8, compound A × partner) was 9.19. The HSA volume (HMC-1-8, compound A × partner) was 5.60, the “Loewe Volume” value (HMC-1-8, compound A × partner) was 5.97 and the “Synergy Score” value (HMC-1-8, compound A × partner) was 9.41. For the same molecule, the “Bliss Volume” value (JIMT-1, compound A × partner) was 5.29, the HSA volume (JIMT-1, compound A × partner) was 2.41 and the “Loewe Volume” value (JIMT-1, compound A × partner) was 1.96. The “Synergy Score” value (JIMT-1, compound A × partner) was 1.56, the “Best CI” value (KPL-1, compound A × partner) was 0.45 and the “Best CI Level” value (KPL-1, compound A × partner) was 95. The “Bliss Volume” value (KPL-1, compound A × partner) was 2.85, the HSA volume (KPL-1, compound A × partner) was 5.14 and the “Loewe Volume” value (KPL-1, compound A × partner) was 4.93. For the same molecule, the “Synergy Score” value (KPL-1, compound A × partner) was 6.00, the “Bliss Volume” value [12] was 6.88 and the HSA volume [12] was 7.73. For the same molecule, the “Loewe Volume” value [12] was 6.93, the “Synergy Score” value [12] was 9.72 and the “Bliss Volume” value [13] was 9.10. For the same molecule, the HSA volume [13] was 4.72, the “Loewe Volume” value [13] was 4.62 and the “Synergy Score” value [13] was 10.26. For the same molecule, the “Bliss Volume” value [14] was 0.30, the HSA volume [14] was 2.64 and the “Loewe Volume” value [14] was 3.33. For the same molecule, the “Synergy Score” value [14] was 2.06, the “Bliss Volume” value [15] was 5.72 and the HSA volume [15] was 4.93. For the same molecule, the “Loewe Volume” value [15] was 3.91, the “Synergy Score” value [15] was 8.70 and the “Bliss Volume” value [16] was 2.45. For the same molecule, the HSA volume [16] was 4.01, the “Loewe Volume” value [16] was 3.66 and the “Synergy Score” value [16] was 2.25. The “Bliss Volume” value [17] was 3.87, the HSA volume [17] was 0.04 and the “Loewe Volume” value [17] was −0.98. For the same molecule, the “Synergy Score” value [17] was 5.75, the “Bliss Volume” value [18] was 11.63 and the HSA volume [18] was 9.14. For the same molecule, the “Loewe Volume” value [18] was 7.97, the “Synergy Score” value [18] was 15.60 and the “Bliss Volume” value [19] was 7.76. The HSA volume [19] was 3.46, the “Loewe Volume” value [19] was 2.55 and the “Synergy Score” value [19] was 4.58. The “Bliss Volume” value [20] was 0.61, the HSA volume [20] was 1.27 and the “Loewe Volume” value [20] was 0.66. The “Synergy Score” value [20] was 1.12, the “Bliss Volume” value [21] was −0.21 and the HSA volume [21] was 2.87. For the same molecule, the “Loewe Volume” value [21] was 2.69, the “Synergy Score” value [21] was 3.70 and the “Bliss Volume” value [22] was 3.52. The HSA volume [22] was 5.12, the “Loewe Volume” value [22] was 4.67 and the “Synergy Score” value [22] was 5.68. The “Bliss Volume” value [23] was 3.82, the HSA volume [23] was 4.76 and the “Loewe Volume” value [23] was 4.25. The “Synergy Score” value [23] was 7.22.

— patent publication US11931424B2, “Combination MCL-1 inhibitors with anti-body drug conjugates” (Gilead Sciences, Inc., priority 2021, dated 2024)
